31 molecules from patent US7420051B2, “Synthetic process for the manufacture of an ecteinaschidin compound” (Pharma Mar, S.A., priority 2000, dated 2008) can be followed below.

Some results are limits rather than exact numbers.

Holding throughout (assay type): cell-based
The test system of assay [1] is A-549 (monolayer culture of a human lung carcinoma). Description: Cytotoxic activity screening, A-549 cells. The settings on record: Homo sapiens, A549, 72 h, three days of incubation, Crystal Violet, approximate IC50. On the procedure:
(§1) Cell Cultures. Cells were maintained in logarithmic phase of growth in Eagle's Minimum Essential Medium, with Earle's Balanced Salts, with 2.0 mM L-glutamine, with non-essential amino acids, without sodium bicarbonate (EMEM/neaa); supplemented with 10% Fetal Calf Serum (FCS), 10^−2 M sodium bicarbonate and 0.1 g/l penicillin-G+streptomycin sulfate.
(§2) A simple screening procedure has been carried out to determine and compare the antitumour activity of these compounds, using an adapted form of the method described by Bergeron et al (1984). The tumour cell line employed have been P-388 (suspension culture of a lymphoid neoplasm from DBA/2 mouse), A-549 (monolayer culture of a human lung carcinoma), HT-29 (monolayer culture of a human colon carcinoma) and MEL-28 (monolayer culture of a human melanoma).
(§3) A-549, HT-29 and MEL-28 were seeded into 16 mm wells at 2×10^4 cells per well in 1 ml aliquots of MEM 10FCS containing the indicated concentration of drug. A separate set of cultures without drug was seeded as control growth to ensure that cells remained in exponential phase of growth. All determinations were carried out in duplicate. After three days of incubation at 37° C., 10% CO2 in a 98% humid atmosphere, the wells were stained with 0.1% Crystal Violet. An approximately IC50 was determined by comparing the growth in wells with drug to the growth in wells control.

For assay [2], the system named is MEL-28 (monolayer culture of a human melanoma). Description: Cytotoxic activity screening, MEL-28 cells. The following applies: SK-MEL-28, 72 h, three days of incubation, Crystal Violet, approximate IC50. How it is done:
as §1, §2, §3

For assay [3], the system named is P-388 (suspension culture of a lymphoid neoplasm from DBA/2 mouse). Description: Cytotoxic activity screening, P-388 cells. The settings on record: Mus musculus, P388, 72 h, three days of incubation, approximate IC50. On the procedure:
as §1, §2
P-388 cell were seeded into 16 mm wells at 1×10^4 cells per well in 1 ml aliquots of MEM 5FCS containing the indicated concentration of drug. A separate set of cultures without drug was seeded as control growth to ensure that cells remained in exponential phase of growth. All determinations were carried out in duplicate.

The test system of assay [4] is HT-29 (monolayer culture of a human colon carcinoma). Briefly: Cytotoxic activity screening, HT-29 cells. The settings on record: Homo sapiens, HT-29, 72 h, three days of incubation, Crystal Violet, approximate IC50. How it is done: as §1, §2, §3

Take `COC1=C(C)C(=O)C2=C(C1=O)[C@H](CNC(=O)[C@H](C)NC(=O)OC(C)(C)C)N1C(C2)[C@H]2c3c(cc(C)c(OC)c3O)C[C@@H]([C@@H]1C#N)N2C` (stereo partly shown): the IC50 in assay [1] is more than 0.15 µM; in assay [2], more than 0.15 µM; in assay [3] it was 0.15 µM; in assay [4], 0.15 µM.
Regarding `C=CCOc1c(C)c2c(c3c1CC1[C@H]4c5c(cc(C)c(OC)c5OCOC)C[C@@H]([C@H](C#N)N1[C@H]3CNC(=O)[C@H](C)NC(=O)OC(C)(C)C)N4C)OCO2` (stereo partly shown), the IC50 in assay [1], in assay [2], in assay [3] and in assay [4] was 0.01 µM throughout.
For the molecule `C=CCOc1c(C)c2c(c3c1CC1[C@H]4c5c(cc(C)c(OC)c5O)C[C@@H]([C@H](C#N)N1[C@H]3CO[Si](C)(C)C(C)(C)C)N4C)OCO2` (stereo partly shown), the IC50 in assay [1] and in assay [4] was more than 1 µM each time.
With `COc1c(C)cc2c(c1O)[C@@H]1C3Cc4c(OC(C)=O)c(C)c5c(c4[C@H](CNC(=O)/C=C/c4cccc(C(F)(F)F)c4)N3[C@@H](C#N)[C@H](C2)N1C)OCO5` (stereo partly shown), the IC50 in assay [1], in assay [2] and in assay [3] was 0.0001 µM in each case.
In the case of `COc1c(C)cc2c(c1O)[C@@H]1C3[C@@H]4SC[C@H](NC(=O)OCc5ccccc5)C(=O)OC[C@@H](c5c6c(c(C)c(OC(C)=O)c54)OCO6)N3[C@@H](C#N)[C@H](C2)N1C` (stereo partly shown), the IC50 in assay [1] and in assay [4] was 0.0013 µM each time.
`COCOc1c(OC)c(C)cc2c1[C@@H]1C3Cc4c(O)c(C)c5c(c4[C@H](CNC(=O)[C@H](C)NC(=O)OC(C)(C)C)N3[C@@H](C#N)[C@H](C2)N1C)OCO5` (stereo partly shown): the IC50 in assay [1], in assay [2], in assay [3] and in assay [4] was 1.4 µM in each case.
Regarding `C=CCOc1c(C)c2c(c3c1CC1[C@H]4c5c(cc(C)c(OC)c5OCOCCOC)C[C@@H]([C@H](C#N)N1[C@H]3COC(CSCC1c3ccccc3-c3ccccc31)NC(=O)OCc1ccccc1)N4C)OCO2` (stereo partly shown), the IC50 in assay [1] and in assay [4] was more than 1 µM each time.
For the molecule `C=CCOc1c(C)c2c(c3c1CC1[C@H]4c5c(cc(C)c(OC)c5O)C[C@@H]([C@H](C#N)N1[C@H]3COC(CSCC1c3ccccc3-c3ccccc31)NC(=O)OC(C)(C)C)N4C)OCO2` (stereo partly shown), the IC50 in assay [1] and in assay [4] was 0.0055 µM in each case.
Regarding `COCCOCOc1c(OC)c(C)cc2c1[C@@H]1C3[C@@H]4SC[C@H](NC(=O)OCc5ccccc5)C(=O)OC[C@@H](c5c6c(c(C)c(OC(C)=O)c54)OCO6)N3[C@@H](C#N)[C@H](C2)N1C` (stereo partly shown), the IC50 in assay [1] and in assay [4] was 0.59 µM each time.
As for `C=CCOC(=O)N[C@@H]1CS[C@@H]2c3c(OC(C)=O)c(C)c4c(c3[C@H](COC1=O)N1C2[C@H]2c3c(cc(C)c(OC)c3OCOCCOC)C[C@@H]([C@@H]1C#N)N2C)OCO4` (stereo partly shown), the IC50 in assay [1] and in assay [4] was 0.012 µM throughout.
In the case of `COCOc1c(OC)c(C)cc2c1[C@@H]1C3CC4=C(C(=O)C(O)=C(C)C4=O)[C@H](CNC(=O)[C@H](C)NC(=O)OC(C)(C)C)N3[C@@H](C#N)[C@H](C2)N1C` (stereo partly shown), the IC50 in assay [1], in assay [2], in assay [3] and in assay [4] was more than 1.5 µM in each case.
In the case of `C=CCOc1c(C)c2c(c3c1CC1[C@H]4c5c(cc(C)c(OC)c5OCOCCOC)C[C@@H]([C@H](C#N)N1[C@H]3CO[Si](C)(C)C(C)(C)C)N4C)OCO2` (stereo partly shown), the IC50 in assay [1] and in assay [4] was more than 1 µM in each case.
For `COCCOc1c(OC)c(C)cc2c1[C@@H]1C3[C@@H]4SC[C@H](NC(=O)OCc5ccccc5)C(=O)OC[C@@H](c5c6c(c(C)c(OC(C)=O)c54)OCO6)N3[C@@H](C#N)[C@H](C2)N1C` (stereo partly shown), the IC50 in assay [1] and in assay [4] was 0.062 µM in each case.
The molecule `C=CCOC(=O)N[C@@H]1CS[C@@H]2c3c(OC(C)=O)c(C)c4c(c3[C@H](COC1=O)N1C2[C@H]2c3c(cc(C)c(OC)c3O)C[C@@H]([C@@H]1C#N)N2C)OCO4` (stereo partly shown) came in with an IC50 in assay [1] of 0.00015 µM.
On to `COCOc1c(OC)c(C)cc2c1[C@@H]1C3CC4=C(C(=O)C(OC)=C(C)C4=O)[C@H](CNC(=O)[C@H](C)NC(=O)OC(C)(C)C)N3[C@@H](C#N)[C@H](C2)N1C` (stereo partly shown), for which the IC50 in assay [1], in assay [2], in assay [3] and in assay [4] was 1.44 µM throughout.
As to `C=CCOc1c(C)c2c(c3c1CC1[C@H]4c5c(cc(C)c(OC)c5OCOC)C[C@@H]([C@H](C#N)N1[C@H]3COC(CSCC1c3ccccc3-c3ccccc31)NC(=O)OC(C)(C)C)N4C)OCO2` (stereo partly shown), the IC50 in assay [1] and in assay [4] was more than 1 µM throughout.
As for `COCCOCOc1c(OC)c(C)cc2c1[C@@H]1C3CC4(O)C(=O)C(C)=C5OCOC5=C4[C@H](COC(CSCC4c5ccccc5-c5ccccc54)NC(=O)OCc4ccccc4)N3[C@@H](C#N)[C@H](C2)N1C` (stereo partly shown), the IC50 in assay [1] and in assay [4] was more than 1 µM each time.
For `COCCOCOc1c(OC)c(C)cc2c1[C@@H]1C3CC4(O)C(=O)C(C)=C5OCOC5=C4[C@H](CO[Si](C)(C)C(C)(C)C)N3[C@@H](C#N)[C@H](C2)N1C` (stereo partly shown), the IC50 in assay [1] and in assay [4] was more than 1 µM each time.
On to `C=CCOc1c(C)c2c(c3c1CC1[C@H]4c5c(cc(C)c(OC)c5OCOCCOC)C[C@@H]([C@H](C#N)N1[C@H]3COC(CSCC1c3ccccc3-c3ccccc31)NC(=O)OC(C)(C)C)N4C)OCO2` (stereo partly shown), for which the IC50 in assay [1] and in assay [4] was more than 1 µM each time.
Consider `C=CCOc1c(C)c2c(c3c1CC1[C@H]4c5c(cc(C)c(OC)c5O)C[C@@H]([C@H](C#N)N1[C@H]3CNC(=O)[C@H](C)NC(=S)Nc1ccccc1)N4C)OCO2` (stereo partly shown), for which the half-maximal inhibitory concentration (IC50) in assay [1], in assay [2], in assay [3] and in assay [4] was 0.01 µM each time.
As to `COC1=C(C)C(=O)C2=C(C1=O)C(CNC(C)=O)N1C(C2)[C@H]2c3c(cc(C)c(OC)c3O)C[C@@H]([C@@H]1C#N)N2C` (stereo partly shown), the IC50 in assay [1], in assay [2], in assay [3] and in assay [4] was 0.005 µM in each case.
Take `COc1c(C)cc2c(c1O)[C@@H]1C3[C@@H]4SCC(N)C(=O)OC[C@@H](c5c6c(c(C)c(OC(C)=O)c54)OCO6)N3[C@@H](C#N)[C@H](C2)N1C` (stereo partly shown): the IC50 in assay [1], in assay [2], in assay [3] and in assay [4] was 0.008 µM each time.
For `COCOc1c(OC)c(C)cc2c1[C@@H]1C3CC4(O)C(=O)C(C)=C5OCOC5=C4[C@H](COC(CSCC4c5ccccc5-c5ccccc54)NC(=O)OC(C)(C)C)N3[C@@H](C#N)[C@H](C2)N1C` (stereo partly shown), the IC50 in assay [1] and in assay [4] was more than 1 µM throughout.
Regarding `C=CCOc1c(C)c2c(c3c1CC1[C@H]4c5c(cc(C)c(OC)c5O)C[C@@H]([C@H](C#N)N1[C@H]3CNC(=O)[C@H](C)N)N4C)OCO2` (stereo partly shown), the IC50 came to 0.16 µM in assay [1], 0.16 µM in assay [2], 0.08 µM in assay [3] and 0.01 µM in assay [4].
For the molecule `COCCOCOc1c(OC)c(C)cc2c1[C@@H]1C3CC4(O)C(=O)C(C)=C5OCOC5=C4[C@H](CO)N3[C@@H](C#N)[C@H](C2)N1C` (stereo partly shown), the IC50 in assay [1] and in assay [4] was more than 1 µM in each case.
As for `COCCOCOc1c(OC)c(C)cc2c1[C@@H]1C3Cc4c(O)c(C)c5c(c4[C@H](COC(CSCC4c6ccccc6-c6ccccc64)NC(=O)OC(C)(C)C)N3[C@@H](C#N)[C@H](C2)N1C)OCO5` (stereo partly shown), the IC50 in assay [1] and in assay [4] was 0.01 µM each time.
Take `C=CCOc1c(C)c2c(c3c1CC1[C@H]4c5c(cc(C)c(OC)c5O)C[C@@H]([C@H](C#N)N1[C@H]3COC(CSCC1c3ccccc3-c3ccccc31)NC(=O)OCc1ccccc1)N4C)OCO2` (stereo partly shown): the IC50 in assay [1] and in assay [4] was 0.11 µM throughout.
Regarding `COCCOCOc1c(OC)c(C)cc2c1[C@@H]1C3Cc4c(O)c(C)c5c(c4[C@H](CO[Si](C)(C)C(C)(C)C)N3[C@@H](C#N)[C@H](C2)N1C)OCO5` (stereo partly shown), the IC50 in assay [1] and in assay [4] was more than 1 µM each time.
As for `COCCOCOc1c(OC)c(C)cc2c1[C@@H]1C3CC4(O)C(=O)C(C)=C5OCOC5=C4[C@H](COC(CSCC4c5ccccc5-c5ccccc54)NC(=O)OC(C)(C)C)N3[C@@H](C#N)[C@H](C2)N1C` (stereo partly shown), the IC50 in assay [1] and in assay [4] was 0.051 µM each time.
On to `COCCOCOc1c(OC)c(C)cc2c1[C@@H]1C3[C@@H]4SC[C@@H](NC(=O)OC(C)(C)C)C(=O)OC[C@@H](c5c6c(c(C)c(OC(C)=O)c54)OCO6)N3[C@@H](C#N)[C@H](C2)N1C` (stereo partly shown), for which, in assay [1], the IC50 worked out at 0.012 µM.
`C=CCOC(=O)NC(CSCC1c2ccccc2-c2ccccc21)OC[C@H]1C2=C3OCOC3=C(C)C(=O)C2(O)CC2[C@H]3c4c(cc(C)c(OC)c4OCOCCOC)C[C@@H]([C@H](C#N)N21)N3C` (stereo partly shown): the IC50 in assay [1] and in assay [4] was more than 1 µM each time.
